# Laboratory results published in patent US20190380985A1, “Composition Containing N-acetyldiaminobutyric Acid” (bitop AG, priority 2016, published 2019).
# Assays:
# HaCaT cells [1] = assay: ATP assay on aged keratinocytes (cell metabolism); format: cell-based, human; conditions: 5 h incubation in PBS, compared to PBS only (0%), FIG. 7
# Text: HaCaT cells (a keratinocyte cell line) were placed on a 96-well microtiter plate and a cell culture was allowed to form for a period of at least one week until cell growth was stopped by contact inhibition. Following this, the cells were cultivated for another week to simulate the ageing process. The cell culture medium was changed over to PBS with the addition of NADA and reference substances such as glucosylglycerol, ectoine (28Extremoin) and Myramaze®, a commercially available anti-aging product. The cells were incubated for a period of 5 hours. Finally, an ATP assay was prepared, whereby a high ATP synthesis indicates a high degree of metabolism and thus attests to cell vitality. The results can be seen from FIG. 7.
# claudin-1 = assay: Claudin-1 specific ELISA after heat stress (tight junctions); format: cell-based, human; conditions: 6 h pretreatment 10-175 mM, 44° C. 30 min, FIG. 8
# Text: The examination focused on the upregulation of claudins, membrane proteins as constituents of tights junctions, which close off the gaps between the cells of the epithelium so that a barrier is formed. This barrier controls the penetration of molecules via the epithelium. Specifically, the pore occluding claudin-1 was examined. An increased expression of claudin-1 leads to higher imperviousness of the epithelial membrane and increased transepithelial electrical resistance (TEER). The permeability is thus reduced.
# The epithelial cell line (HaCaT) used for the experiment was cultivated in wells on a microtiter plate until a closed cell monolayer had developed. Subsequently, the cells were pretreated with NADA for 6 hours in the cell culture medium (10, 25, 50, 75, 100 and 175 mM). The cells were then suddenly exposed to a temperature of 44° C. for a period of 30 min. before being kept at 37° C. for another 24 and 48 hours respectively. The cells were harvested and the lysate was analyzed using a claudin-1 specific ELISA (enzyme-linked immunosorbent assay). The results can be seen from FIG. 8.
# LLC-PK1 cell line = assay: Membrane stabilization, calcein AM assay, LLC-PK1; format: cell-based; conditions: LLC-PK1 cells; FIG. 6
# HaCaT cells [2] = assay: IR protection test using LDH assay; format: cell-based, human; conditions: 5 h preincubation, 44° C. for 30 min, 60 h at 37° C., FIG. 4; for liberation of LDH (protection against heat/IR): compared to untreated cells
# Text: Infrared (IR) radiation brings about an increase in skin temperature, which is associated with an increase in the number of free radicals and increased expression of heat shock inducing metalloproteases (MMP). A permanent exposure to IR radiation may result in an increase in cell death rate through apoptosis. In order to determine the potential of NADA and, for comparative purposes, ectoine on eukaryotic cells regarding the protection against heat and IR radiation, HaCaT cells (human keratinocyte cell line) were applied to 96 wells of a microtiter plate. After a uniform cell layer had formed, the test substances were applied to the medium and the cells were incubated for 5 hours at a temperature of 37° C. Following preincubation, the cells were exposed to a temperature of 44° C. for 30 min. The cells were then incubated at 37° C. for a further 60 hours.
# SIRC cell line = assay: Matsuo moisturizing assay (calcein AM viability after air-drying); format: cell-based, rabbit; conditions: 25 mM; 15 min treatment, 45 min air-drying; FIG. 1
# Experimental: The skin/mucosal moisturizing effect of N-acetyldiaminobutyric acid was investigated using a Matsuo moisturizing assay (Matsuo, Br J. Opthalmol. 85: 610-612). An SIRC cell line isolated from rabbit eyes was used for this purpose. For the experiments, 30,000 cells were placed in each well of a 96 well microtiter plate. After approx. 24 h a complete monolayer had formed in each case. The supernatant was then removed and 100 μl of the test substances diluted in PBS (phosphate buffered salt solution) were applied to the cells for 15 min. Then, the supernatant was removed again. At this stage, the cells were not washed with PBS. Under sterile conditions the cells were air-dried over a period of 45 min. Following this, the cells were washed three times with PBS. To determine cell viability calcein AM staining (calcein-acetoxymethyl ester) was used. Calcein is a fluorescent dye. After the transport of calcein AM into the living cell, the ester groups were cleaved by esterases of the cell resulting in the formation of calcein causing a strongly green fluorescent complex to be formed with calcium ions present in the cell. […] In turn, a high cell viability attests to good wetting properties of the test substances.
# The result is shown in FIG. 1 in comparison to the effect of ectoine and hyaluronic acid. […]
# Phenion skin model = assay: UV protection test using LDH assay on full thickness skin model; format: cell-based; conditions: 4 h incubation, compared with PBS, FIG. 3
# Experimental: In order to further evaluate the UV, protection effect of NADA, a full thickness skin model of Henkel (Phenion skin, model) was used. This is based on a bovine collagen structure, which is morphologically equivalent to human skin and thus allows examinations to be easily carried out. The Phenion skin model was incubated with the test substances for 4 hours. These were applied directly to the top surface. Subsequently, the Phenion skin model was exposed to UV-B radiation for 2 hours. […] The skin model was then incubated for another 24 hours and the LDH (lactate dehydrogenase) value was determined, which is a measure of the degree of damage caused to the cells.
# TR146 cell line = assay: Membrane stabilization, calcein AM assay, TR146; format: cell-based, human; conditions: different concentrations, compared to PBS only; FIG. 5
# Experimental: This is a buccal human cell line of oral mucosa cells. The cells were placed in a microtiter plate having 96 wells. As soon as confluence was reached, the cells were washed with PBS and provided with different concentrations of N-acetyldiaminobutyric acid. The negative control contained only PBS, the positive control cDPG (cyclic 2,3-diphosphoglycerate). Following incubation, the cells were again washed with PBS and incubated with 5 μM of calcein AM for a period of 45 min. The hydrolysis of calcein AM, which itself is non-fluorescent, by intracellular esterases produces calcein, a hydrophilic, highly fluorescent compound that is retained in the cytoplasm of the cells. Accordingly, high fluorescence is indicative of high cell viability.
# HaCaT cells [3] = assay: UV protection test via TEER assay; format: cell-based, human; conditions: 100 mM, overnight preincubation, 45 min UV-B, 24 h later; FIG. 2
# Text: A characteristic feature of epithelial as well as endothelial cell layers is the formation of intercellular connections leading to a dense cell barrier separating the basolateral (abluminal) side from the apical (luminal) side. The cell layers form selectively permeable interfaces between different compartments, in this way controlling the diffusion in intercellular space as well as intracellular transport processes. This is ensured by tight junctions (paracellular barriers in the intercellular space). The integrity of these barriers is determined by the so-called TEER method (transepithelial/transendothelial electrical resistance). A defined DC voltage is applied to two electrodes on both sides of the cell layer. The flowing current is measured, which yields the respective resistance results according to Ohm's law.
# HaCaT cells were used, a human keratinocyte cell line. These were applied to PET membranes (“ThinCerts®”). It was waited until the cells had formed a complete and intact monolayer. […]
# In order to accomplish a closer investigation of the protective effect of membranes stabilized by N-acetyldiaminobutyric acid against UV radiation, keratinocytes were incubated overnight in a cell culture medium with PBS, NADA (50 mM and 100 mM) and other compounds. […] The cells were incubated for another 24 hours and the TEER values were determined. […]
SMILES,ATP activity (cell metabolism) (HaCaT cells [1]),expression of claudin-1 (claudin-1; then 24 hours at 37° C.),expression of claudin-1 (claudin-1; then 48 hours at 37° C.),calcein fluorescence (membrane stabilizing effect) (LLC-PK1 cell line),protection against IR radiation relative to ectoine (HaCaT cells [2]),liberation of LDH (protection against heat/IR) (HaCaT cells [2]),viability of the cells and thus the humidification after drying of the cells (SIRC cell line),"LDH value after UV exposure (UV protection) (Phenion skin model; 2 h UV-B, 24 h later)",LDH value before UV exposure (Phenion skin model; before UV-B),calcein fluorescence (stabilization of epithelial cells) (TR146 cell line),change of the TEER value after UV-B radiation (HaCaT cells [3])
"CC(=O)NCCC(N)C(=O)O (stereo not drawn) [NADA, N-acetyldiaminobutyric acid]",reactivation of aged keratinocytes,distinct increase in the expression of claudin-1,distinct increase in the expression of claudin-1,membrane stabilizing effect,more effective than ectoine,offer protection against intense IR radiation,comparable results to ectoine,shows UV protection properties,approximately the same for PBS and NADA,"significant, concentration-dependent stabilization of the epithelial cells",significant protection of the cell membrane
"CC1=NC(C(=O)O)CCN1 (stereo not drawn) [ectoine, 2-methyl-1,4,5,6-tetrahydropyrimidine-4-carboxylic acid, reference compound]",,,,,,offer protection against intense IR radiation,,,,,
